{
  "source": "patent US6916843B1",
  "about": "“Anti-inflammatory actions of cytochrome P450 expoxygenase-derived eicosanoids” (The United States of America as represented by the …, priority 1999, dated 2005)",
  "key": {"[1]": {"test_system": "VCAM-1 promoter", "experiment": "VCAM-1 promoter construct activity in transiently transfected bovine aortic endothelial cells", "type": "cell-based", "source_text": "To localize cis-acting elements in the VCAM-1 promoter that might mediate the inhibitory effects of [11,12]-EET, we transiently transfected bovine aortic endothelial cells with a -755 bp VCAM-1 promoter construct (DeCaterina et al., 96 J. Clin. Invest. 60 (1995)). Stimulation with TNF-α induced a 13-fold increase in relative VCAM-1 promoter activity that was abolished by cotreatment with [11,12]-EET. […] To confirm that the tandem κB sites in the VCAM-1 promoter are repressed by [11,12]-EET we subcloned them into a heterologous promoter construct containing the SV40 enhancer linked to the luciferase reporter gene (pκB.Luc). Stimulation of transfected endothelial cells with TNF-α induced a 6-fold increase in pκB.Luc promoter activity that was abolished by co-treatment with [11,12]-EET, but not [14,15]-EET (FIG. 2C). […] Compared to transfection with the empty pcDNA3.1 vector, overexpression of CYP2J2 decreased TNF-induced VCAM-1 and pκB.Luc promoter activity by 70-80% which were reversed in the presence of SK[…] (FIG. 2C). Neither transfection with CYP2J2 cDNA alone nor treatment with SK[…] alone affected basal promoter activity."}, "[2]": {"test_system": "NF-κB", "experiment": "NF-κB heterologous promoter (pκB.Luc) luciferase reporter in bovine endothelial cells", "type": "cell-based", "method": "FIG. 2 is a set of bar graphs of cell-surface enzyme immunoassays. […] The difference between treatment with TNF-α alone and in the presence of [11,12]-EET were statistically significant (*p<0.05, **p<0.01), OD, optical density. […] After stimulation with TNF-α (10 ng/ml) in the presence or absence of EET, promoter activity was determined relative to basal activity. *p<0.01 vs. TNF-α alone.\nTo localize cis-acting elements in the VCAM-1 promoter that might mediate the inhibitory effects of [11,12]-EET, we transiently transfected bovine aortic endothelial cells with a −755 bp VCAM-1 promoter construct (DeCaterina et al., 96 J. Clin. Invest. 60 (1995)). Stimulation with TNF-α induced a 13-fold increase in relative VCAM-1 promoter activity that was abolished by cotreatment with [11,12]-EET. […] To confirm that the tandem κB sites in the VCAM-1 promoter are repressed by [11,12]-EET we subcloned them into a heterologous promoter construct containing the SV40 enhancer linked to the luciferase reporter gene (pκB.Luc). Stimulation of transfected endothelial cells with TNF-α induced a 6-fold increase in pκB.Luc promoter activity that was abolished by co-treatment with [11,12]-EET, but not [14,15]-EET (FIG. 2C). […] Compared to transfection with the empty pcDNA3.1 vector, overexpression of CYP2J2 decreased TNF-induced VCAM-1 and pκB.Luc promoter activity by 70-80% which were reversed in the presence of SKF525A (FIG. 2C). Neither transfection with CYP2J2 cDNA alone nor treatment with SKF525A alone affected basal promoter activity."}, "[3]": {"test_system": "bovine aortic endothelial cells (BAECs)", "experiment": "Hypoxia-reoxygenation-induced cell injury in BAECs (cell number, LDH release, trypan blue)", "type": "cell-based", "method": "Effects of P450-derived arachidonic acid metabolites on hypoxia-reoxygenalion-induced injury in BAECs. BAECs, either untransfected, or 48 hours after transfection with pcDNA3.1/GFP or pcDNA3.1/CYP2J2, or 10 min after treatment with eicosanoids, epoxide hydrolase inhibitors or vehicle, were exposed to hypoxia (95% nitrogen plus 5% carbon dioxide) for 24 hours, followed by reoxygenation (95% air plus 5% carbon dioxide) for 4 hours using an environmental chamber within a 37° C. incubator. Cells maintained under continuous (28 hours) normoxic conditions served as controls.\nEETs were prepared by total chemical synthesis as previously described (Corey el al., 102 J. Am. Chem. Soc. 1433-1435 (1980), Falck et al., 23 Tetrahedron Lett. 1755-1756 (1982)). DHETs were prepared by chemical hydration of EETs as described by Capdevila et al., 187 Methods Enzymol. 386-394 (1990). Synthetic EETs and DHETs were purified by reverse-phase HPLC prior to use. BAECs, grown to ˜85% confluency, were treated with either synthetic [11,12]-EET, [11,12]-DHET, or [14,15]-EET in ethanol vehicle (1 μmol/L each, final concentration) for 10 min prior to exposure to hypoxia-reoxygenation. […] Cells treated with vehicle alone served as controls.\nAfter hypoxia-reoxygenation, the cell number was determined using a hemocytometer and the degree of cell injury was assessed by measuring lactate dehydrogenase release into the culture medium using the CytoTox 96 Non-Radioactive Cytotoxicity Assay Kit (Promega, Madison, Wis.) and by counting the number of trypan blue dye stained cells. Data are expressed as a percentage of values obtained from control cells maintained under normoxic conditions."}, "[4]": {"test_system": "endogenous EET levels", "experiment": "Endogenous EET levels in BAECs (gas chromatography/mass spectrometry)", "type": "cell-based, bovine", "settings": "CYP2J2 transfection vs control BAECs", "source_text": "In addition to the cyclooxygenase and lipoxygenase pathways, the P450 monooxygenase pathway is an important member of the cardiac arachidonic acid metabolic cascade (Wu et al., 272 J. Biol. Chem 12551 (1997))."}, "[5]": {"test_system": "F2-isoprostanes", "experiment": "Cellular F2-isoprostanes in BAECs exposed to hypoxia-reoxygenation (GC/MS)", "type": "cell-based, bovine", "settings": "CYP2J2-transfected vs GFP-transfected BAECs", "method": "F2-Isoprostane levels in BAECs were measured using a modification of the procedure described by Morrow & Roberts, 300 Methods Enzymol. 3-12 (1999). Briefly, cells were collected by treatment with trypsin and stored at −80° C. until analyzed. BHT was added to the freshly-thawed samples to inhibit oxidation during sample processing. The samples (4×10^7 cells) were incubated with KOH for 30 minutes at 40° C. The samples were then acidified to pH 3.0, 3 ng of a d4 8-iso-PGF2α internal standard was added, and the precipitated protein was removed by centrifugation at 375×g. The F2-isoprostanes in the supernatant were concentrated by passage over C18 Sep-pak (Millipore, Marlborough, Mass.), followed by Silica Sep-pak (Millipore) columns. The eluant, containing a mixture of the d4 internal standard and endogenous cellular F2-isoprostanes, was dried under nitrogen and derivatized to the pentaflorobenzyl (PFB) ester using […] according to the protocol of Schweer et al., 32 J. Mass Spectrom. 1362-1370 (1997). The PFB-derivatized isoprostanes were purified by TLC, and the bands were collected based on comparison of their Rf values to those of authentic standards. […] Quantitation was done by GC/NCI/MS on a 25m Supelco DB 5 column (Supelco, Bellefonte, Pa.). […]"}, "[6]": {"settings": "overexpression vs empty pcDNA3.1 vector"}, "[7]": {"settings": "CYP2J2-transfected vs GFP-transfected BAECs"}},
  "data": [
    {"molecule": "CCCCC/C=C\\C[C@H]1O[C@H]1C/C=C\\C/C=C\\CCCC(=O)O", "note": "[[11,12]-EET]", "values": [
      {"measurement": "effect on TNF-α-induced VCAM-1 promoter activity, −755 bp construct", "setting": "[1]; cotreatment with TNF-α (13-fold increase)", "result": "abolished"},
      {"measurement": "effect on TNF-α-induced pκB.Luc promoter activity", "setting": "[2]; 100 nM, TNF-α 10 ng/ml (6-fold increase)", "result": "abolished"},
      {"measurement": "hypoxia-reoxygenation-induced cell injury, number of trypan blue stained cells", "setting": "[3]; 1 μmol/L, added 10 min prior to hypoxia (24 h hypoxia, 4 h reoxygenation)", "result": "significantly attenuates"}
    ]},
    {"molecule": "CYP2J2: CYP2J2 cDNA (1.9 kb) subcloned into plasmid pcDNA3.1, transfected into endothelial cells", "values": [
      {"measurement": "decrease of TNF-induced VCAM-1 promoter activity", "setting": "[1]; [6]", "result": "70-80%"},
      {"measurement": "increase of endogenous EET levels", "setting": "[4]", "result": "approximately 30%"},
      {"measurement": "hypoxia-reoxygenation-induced increase in cellular F2-isoprostanes", "setting": "[5]", "result": "significantly attenuated"},
      {"measurement": "decrease of TNF-induced pκB.Luc promoter activity", "setting": "[2]; [6]", "result": "70-80%"},
      {"measurement": "cell number after hypoxia-reoxygenation", "setting": "[3]; [7]", "result": "slightly increased"},
      {"measurement": "lactate dehydrogenase released into culture medium after hypoxia-reoxygenation", "setting": "[3]; [7]", "result": "significantly less"},
      {"measurement": "trypan blue stained cells after hypoxia-reoxygenation", "setting": "[3]; [7]", "result": "significantly fewer"}
    ]}
  ]
}
